Reference: patent publication US5643923A, “Quinuclidinyloxy-isoxazole compounds and their therapeutic uses” (Sankyo Company, Limited, priority 1990, dated 1997)
Where a name gives a salt, the structure may show the parent alone. Read-outs that look alike come from different tables or passages of the source.

Columns and labels:
M1 receptors = biological target: T1, M1 receptors (Rattus norvegicus, UniProt P08482); assay: biochemical; format: binding
T1 sequence (P08482 1-460): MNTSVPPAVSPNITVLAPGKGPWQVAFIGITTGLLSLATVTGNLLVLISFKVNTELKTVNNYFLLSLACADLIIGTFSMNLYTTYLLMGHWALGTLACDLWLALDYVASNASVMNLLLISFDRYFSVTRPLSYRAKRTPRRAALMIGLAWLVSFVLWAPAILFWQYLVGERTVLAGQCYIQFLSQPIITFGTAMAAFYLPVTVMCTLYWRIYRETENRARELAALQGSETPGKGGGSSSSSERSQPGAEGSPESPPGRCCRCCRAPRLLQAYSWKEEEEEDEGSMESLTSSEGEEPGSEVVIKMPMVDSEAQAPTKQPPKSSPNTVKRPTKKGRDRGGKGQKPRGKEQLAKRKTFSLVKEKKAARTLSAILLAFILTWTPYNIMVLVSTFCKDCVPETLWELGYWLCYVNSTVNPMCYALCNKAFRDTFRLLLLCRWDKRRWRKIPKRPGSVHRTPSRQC

M2 receptors = biological target: T2, M2 receptors (Rattus norvegicus, UniProt P10980); assay: biochemical; format: binding
T2 sequence (P10980 1-466): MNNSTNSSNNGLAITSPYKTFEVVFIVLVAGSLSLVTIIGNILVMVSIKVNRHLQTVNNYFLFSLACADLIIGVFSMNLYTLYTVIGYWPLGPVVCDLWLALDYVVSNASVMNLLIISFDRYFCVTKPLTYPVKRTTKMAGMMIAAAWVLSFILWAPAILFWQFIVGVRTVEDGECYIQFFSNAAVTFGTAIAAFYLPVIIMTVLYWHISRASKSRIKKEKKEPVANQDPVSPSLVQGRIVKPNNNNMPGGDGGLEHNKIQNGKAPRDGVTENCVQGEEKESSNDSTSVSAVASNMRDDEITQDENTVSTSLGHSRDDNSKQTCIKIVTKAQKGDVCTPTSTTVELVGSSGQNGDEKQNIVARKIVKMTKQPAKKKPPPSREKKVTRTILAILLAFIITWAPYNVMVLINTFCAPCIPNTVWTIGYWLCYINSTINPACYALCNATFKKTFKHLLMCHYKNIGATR

[1] = system: reserpine-induced ptosis in mice; assay: Anti-reserpine effect: antagonistic effect against reserpine-induced ptosis; format: in vivo, mouse (ddY strain); conditions: for Maximum inhibition rate (%): reserpine 2 mg/kg s.c., 90 minutes
Description: It is considered that the sedation caused by the administration of reserpine or tetrabenazine to mice or rats produces an effect similar to the symptoms of clinical depression. Of the various pharmacological effects caused by these compounds, ptosis (drooping of the upper eyelid) and a reduction in body temperature have been widely used as indices of their activity, and it has been shown that any compound which inhibits either ptosis or lowering of the body temperature will also be active against the symptoms of clinical depression. Therefore, anti-reserpine or anti-tetrabenazine effects have been widely used for a long time as a method of screening for antidepressants. The test index used for the evaluation of the compounds of the present invention is the antagonistic effect of a test compound against reserpine-induced ptosis in mice.
The test animals employed were mature male mice of the ddY strain, 4 weeks old and each weighing 22 to 27 g. The animals were divided into groups, each including 3 mice. The compound under test was dissolved or suspended in an appropriate solvent [either physiological saline or a 0.5% CMC (carboxymethyl cellulose) solution] and administered orally to the mice of the test groups in the dose specified in the following Table 6. The mice in a control group were given only the solvent without any active compound, administered in a similar way. Immediately after administration,2 mg/kg of reserpine were administered subcutaneously to every mouse. After 90 minutes, it was determined how much the eyelids had closed (degree of ptosis) by bringing the mouse out of its cage and observing the shape of the eye.
From the scores obtained, the inhibition rate at each dose level was calculated from the following equation: [formula]

mice = assay: Acute toxicity; format: in vivo, mouse; conditions: 75 mg/kg, 5 days observation
Method: Each of the compounds of Examples 3 and 4 was suspended in a 0.5% CMC solution, and the suspension was administered to mice in an amount sufficient to provide a dose of active compound of 75 mg/kg.

[2] = system: blood viscosity increase resulting from cerebral ischemia; assay: Inhibition of blood viscosity increase resulting from cerebral ischemia; format: in vivo, rat (Wistar strain); conditions: oral; one hour after carotid ligation; shear 37.5, 75, 150 and 375/sec
Method: The test animals used were adult male rats of the Wistar strain. Each rat was administered orally either a solution of 3-(3-quinuclidinyloxy)isoxazole hydrochloride (the compound prepared as described in Example 4) in suspension in a 0.5% CMC vehicle or the vehicle itself. Immediately after administration, 40 mg/kg of pentobarbital was administered intraperitoneally for anesthesia. The rat was fixed at the dorsal position, and 0.6 ml of a blood sample was taken from the common jugular vein on one side. The viscosity of each sample was measured using a viscometer (Biorheolyzer, a trade name for product of Tokyo Keiki) at shear values of 37.5/sec, 75/sec, 150/sec and 375/sec. 0.5 ml of blood was then taken from the other side and its viscosity was measured in the same way.
After the first two samples had been taken, the carotid arteries on both sides of each animal were ligated. One hour after ligation, in the case of the control animals (administered only the vehicle), the blood viscosity values had increased by between 5 and 20% at every shear rate (the slower the shear rate, the higher the viscosity).

5-HT3 receptors = biological target: T3, 5-HT3 receptors (Rattus norvegicus, UniProt P35563); assay: biochemical; format: binding
T3 sequence (P35563 24-483): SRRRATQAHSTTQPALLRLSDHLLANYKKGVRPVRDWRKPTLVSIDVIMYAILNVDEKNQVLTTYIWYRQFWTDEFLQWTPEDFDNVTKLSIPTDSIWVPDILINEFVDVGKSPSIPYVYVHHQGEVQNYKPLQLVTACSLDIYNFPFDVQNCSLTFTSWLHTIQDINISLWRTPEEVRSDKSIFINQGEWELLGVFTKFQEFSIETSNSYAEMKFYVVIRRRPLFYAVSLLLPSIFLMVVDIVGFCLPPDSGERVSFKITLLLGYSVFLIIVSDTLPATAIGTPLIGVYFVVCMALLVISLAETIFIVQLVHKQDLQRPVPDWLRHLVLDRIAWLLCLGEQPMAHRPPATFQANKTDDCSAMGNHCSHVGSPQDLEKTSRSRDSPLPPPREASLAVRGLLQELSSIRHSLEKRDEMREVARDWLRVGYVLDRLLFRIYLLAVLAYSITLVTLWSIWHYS
Method: A membranous fraction prepared from the cerebral cortex of rats was incubated with the test compound and with ^3 H-GR65630 (to a final concentration of 1 nM, as a ligand to the 5-HT3 receptors) at 37° C. for 45 minutes. At the end of this time, the samples were filtered. The ^3 H radioactivity bound to the filter paper was determined by a scintillation counter as in Experiment 1.

[3] = system: isolated guinea pig ileum (selective 5-HT3 agonist 2-methyl-5-HT); assay: Effects upon the isolated guinea pig ileum: inhibition of contraction by 2-methyl-5-HT; conditions: for Inhibition (%): 10^-6 M, contractile force by 2-methyl-5-HT, 30 minutes after addition
Method: The ileum isolated from a guinea pig was hung in a Magnus cup filled with Tyrode's solution. The contractile force exerted by the ileum on the application of a selective 5-HT3 agonist, 2-methyl-5-HT, was determined using an isometric transducer. A test compound was then added to the bath and the contractile force was again measured 30 minutes after the addition. The inhibition rate on the contractile force was calculated.

[4] = 3H-pirenzepine 1 nM, rat cerebral cortex membrane, 30° C., 60 minutes, read-out: IC50 Pirenzp (a) (cerebral cortex)
[5] = ratio IC50 QNB (heart) / IC50 Pirenzp (cerebral cortex)
[6] = 3H-GR65630 1 nM, rat cerebral cortex membrane, 37° C., 45 minutes

For CN1CCC(Oc2noc3ccc(Cl)cc23)CC1.Cl [Example A1, 5-Chloro-3-(1-methyl-4-piperidyloxy)-1,2-benzisoxazole hydrochloride], the IC50 (M1 receptors; [4]) was 1.9 µM, the “M1 selectivity (b)/(a)” value (M1 receptors; [5]) was 22 and the IC50 (M2 receptors; read-out: IC50 QNB (b) (heart)) was 41 µM.

For Cc1onc(OC2CN3CCC2CC3)c1Cl.Cl (stereo not shown) [Example A2, 4-Chloro-5-methyl-3-(3-quinuclidinyloxy)isoxazole hydrochloride], the Assessment ([1]; 3 mg/kg po) was “- (not more than 40%)”, the “Maximum inhibition rate (%)” value ([1]; 3 mg/kg po) was 60% and the Assessment ([1]; 30 mg/kg po) was “+ (inhibition rates not less than 71%)”. For the same molecule, the “Maximum inhibition rate (%)” value ([1]; 30 mg/kg po) was 100%, the adverse symptoms (mice) was “nor did the mice exhibit any adverse symptoms” and the deaths (mice) was “no deaths were observed”.

With Cl.c1cc(OC2CN3CCC2CC3)no1 (stereo not shown) [Example A3, 3-(3-Quinuclidinyloxy)isoxazole hydrochloride] the Assessment ([1]; 1 mg/kg po) was “- (not more than 40%)”, the “Maximum inhibition rate (%)” value ([1]; 1 mg/kg po) was 21% and the Assessment ([1]; 3 mg/kg po) was “± (from 41% to 70%)”. The “Maximum inhibition rate (%)” value ([1]; 3 mg/kg po) was 57%, the Assessment ([1]; 10 mg/kg po) was “+ (inhibition rates not less than 71%)” and the “Maximum inhibition rate (%)” value ([1]; 10 mg/kg po) was 86%. The Assessment ([1]; 30 mg/kg po) was “+ (inhibition rates not less than 71%)”, the “Maximum inhibition rate (%)” value ([1]; 30 mg/kg po) was 100% and the “inhibition of blood viscosity increase” value [2] was “the increase was significantly inhibited at every shear rate”. The adverse symptoms (mice) was “nor did the mice exhibit any adverse symptoms” and the deaths (mice) was “no deaths were observed”.

For Cc1cc(OC2CN3CCC2CC3)no1.Cl (stereo not shown) [Example A4, 5-Methyl-3-(3-quinuclidinyloxy)isoxazole hydrochloride], the Assessment ([1]; 30 mg/kg po) was “± (from 41% to 70%)”, the “Maximum inhibition rate (%)” value ([1]; 30 mg/kg po) was 45% and the Assessment ([1]; 100 mg/kg po) was “+ (inhibition rates not less than 71%)”. The “Maximum inhibition rate (%)” value ([1]; 100 mg/kg po) was 80%.

With Cl.Clc1c(OC2CN3CCC2CC3)noc1-c1ccccc1 (stereo not shown) [Example A5, 4-Chloro-3-(3-quinuclidinyloxy)-5-phenylisoxazole hydrochloride] the IC50 (5-HT3 receptors) was 0.22 µM, the “5-HT3 antagonist activity (in words)” value [3] was “as potent an antagonist as ondansetron” and the “Inhibition (%)” value [3] was 82%.

Clc1ccc2onc(OC3CN4CCC3CC4)c2c1 (stereo not shown) [Example A6, 5-Chloro-3-(3-quinuclidinyloxy)-1,2-benzisoxazole] showed an IC50 (5-HT3 receptors; [6]) of 0.18 µM.

Work on Clc1ccc(-c2cc(OC3CN4CCC3CC4)no2)cc1 (stereo not shown) [Example A7, 5-(p-Chlorophenyl)-3-(3-quinuclidinyloxy)isoxazole hydrochloride] yielded an IC50 (5-HT3 receptors) of 0.32 µM.

Clc1c(OC2CCCNC2)noc1-c1ccccc1 (stereo not shown) [Example A8, 4-Chloro-5-phenyl-3-(3-piperidyloxy)isoxazole hydrochloride] showed an IC50 (5-HT3 receptors; [6]) of 0.26 µM.

Work on c1csc(-c2cc(OC3CN4CCC3CC4)no2)c1 (stereo not shown) [Example A9, 3-(3-Quinuclidinyloxy)-5-(2-thienyl)isoxazole hydrochloride] yielded an IC50 (5-HT3 receptors) of 0.15 µM.

For O=C1CCCN1CC#CCN1CCCC1 [Example B1, Oxotremorine], the IC50 (M1 receptors) was 1.3 µM, the “M1 selectivity (b)/(a)” value (M1 receptors) was 0.9 and the IC50 (M2 receptors) was 1.2 µM.

With CCN1C(=O)CC2(CCN(C)CC2)C1=O [Example B2] the IC50 (M1 receptors; [4]) was 3.1 µM, the “M1 selectivity (b)/(a)” value (M1 receptors; [5]) was 6.8 and the IC50 (M2 receptors; read-out: IC50 QNB (b) (heart)) was 21 µM.

For CC1OC2(CS1)CN1CCC2CC1 (stereo not shown) [Example B3], the IC50 (M1 receptors; [4]) was 3.6 µM and the IC50 (M2 receptors; 3H-quinuclidinyl benzylate 0.12 nM, rat heart membrane, 30° C., 120 minutes, read-out: IC50 QNB (b) (heart)) was 14 µM.

For Cc1nccn1CC1CCc2c(c3ccccc3n2C)C1=O (stereo not shown) [Example B5, Ondansetron, reference compound], the “Inhibition (%)” value [3] was 79%.
